Consider 1 compound from patent publication US11566231B2, “Physiology and pathophysiology of human gut: intestine-on-chip” (EMULATE, INC., priority 2017, dated 2023).

One data set has as its system human PXR. Particulars: human cells; cited from earlier work.
The next data set concerns IL-8. The experiment in a line: LPS-induced IL-8 production in Intestine-Chip. As to conditions: LPS 100 μg/ml; Rifaximin 50 μg/ml; without stretch. Type of data set: cell-based, human.

With `CO[C@H]1/C=C/O[C@@]2(C)Oc3c(C)c(O)c4c(O)c(c5c(nc6cc(C)ccn65)c4c3C2=O)NC(=O)/C(C)=C\C=C\[C@H](C)[C@H](O)[C@@H](C)[C@@H](O)[C@@H](C)[C@H](OC(C)=O)[C@@H]1C` [Rifaximin], the “expression of PXR-regulated genes, including CYP3A4 and MDR1” value with human PXR is reported as “enhanced”. The IL-8 result with IL-8 is on record as “decrease in IL-8”.
